Experimental data as given in patent US9072777B2, “Method for screening substance having proangiogenic effect” (priority 2005, dated 2015).
Ends that are not written are not given here.

Columns and labels:
[1] = test system: lower extremity ischemia model mouse; test: lower extremity ischemia model mouse (laser Doppler perfusion imaging, wound healing, new vessels); assay type: in vivo
Protocol: Mouse lower extremity ischemia model was prepared as follows.
C3H mice were anesthetized with nembutal and then skin of one side of lower extremity was cut open to expose artery of lower extremity. The lower extremity ischemia model was prepared by ligating artery of lower extremity at upper groin and lower popliteal region and resecting the artery of lower extremity at this region. The recovery of the blood flow after the resection of the artery of lower extremity by the development of the collateral circulation was observed.
C3H mice at the age of 6 months were divided into three groups; AM administration group, VEGF administration group, and control group. Mice of AM treatment group was continuously injected with AM (50 ng/h) by osmotic pump. Each mouse of VEGF administration group was injected with 20 μl of VEGF (5 ng/h) intramuscularly and used as positive control. Mice of control group were injected with PBS continuously.
The blood flow in the lower extremity ischemia model was monitored using laser Doppler perfusion imaging. The effect of AM on wound healing was also investigated. […] In FIG. 4, almost no blood flow in ischemic lower limb was observed on the first day of ischemic model preparation ([…] day 0).
The increasing of the number of new intramuscular blood vessel at the side of operation was also observed (FIG. 6, panel B). In contrast, in AM heterozygous knockout mice (AM +/−), and the mice administered with “AM 22-52”, a truncated form of AM consisting of from 22 to 52 amino acid sequence (AM antagonist), suppression of the recovery of blood flow and the angiogenesis were observed (FIG. 7). In FIG. 7, the mark “**” denotes p<0.01. Hereinafter the same.

claudin 5 = claudin 5 gene expression in HUVEC cultured on Matrigel, real-time PCR; assay type: cell-based, human
Protocol: (1) Adrenomedullin was administered exogenously to HUVEC cultured on Matrigel. After stimulating for 24 hours, the cell was recovered and RNA was extracted. The expression of claudin 5 gene was investigated using real-time PCR technique.
(2) “AM 22-52”, a truncated form of AM consisting of from 22 to 52 amino acid sequence was administered to HUVEC cultured on Matrigel to investigate the gene expression level.

Akt = test: phosphorylation of Akt in HUVEC, Western Blot; assay type: cell-based, human; details: AM 10^-11 to 10^-7 M in combination with VEGF 10 ng/ml
Protocol: (§1) Single administration of AM (10^−11 to 10^−7 M) alone, or administration of AM in combination with VEGF (10 ng/ml) to the cultivating system of human umbilical vein endothelial cell was carried out. Protein was extracted from cells and the phosphorylation of Akt and eNOS was investigated using Western Blot analysis.

eNOS = test: phosphorylation of eNOS in HUVEC, Western Blot; assay type: cell-based, human; details: AM 10^-11 to 10^-7 M in combination with VEGF 10 ng/ml
Protocol: as §1

VEGF [2] = test: expression of VEGF in femoral muscle of lower extremity ischemia model mouse, Western Blot; assay type: in vivo; details: AM administration group vs control
Protocol: The lower extremity ischemia model mouse prepared as in Example 2 was sacrificed by cervical dislocation, then femoral muscle sampled, from which protein was extracted and Western Blot analysis was conducted.

VEGF [3] = test: expression of VEGF in human artery endothelial cell (HAEC), RT-PCR; assay type: cell-based; details: AM concentration and stimulation time dependence
Protocol: Also, the expression of VEGF in human artery endothelial cell (HAEC) was analyzed using RT-PCR.

[4] = test system: AM heterozygous knockout mice (AM +/-); test: rescue test using AM heterozygous knockout mice (lower extremity ischemia model); assay type: in vivo, mouse; details: for formation of new blood vessel: AM +/- mice supplemented with AM or VEGF; for recovery of blood flow / angiogenesis effect: AM +/- mice supplemented with exogenous AM or VEGF
Protocol: Rescue test using AM knockout mouse may also be carried out. In the lower-extremity ischemia model prepared from the AM knockout mouse with decreased expression level of AM, angiogenesis potency decreases. When AM is administered exogenously to the AM knockout mouse, recovery of angiogenesis potency may be observed. This is referred to as “rescue test”.
In this example, The lower extremity ischemia model mice were prepared as in Example 2, and the recovery of blood flow of the AM heterozygous knockout mice (AM +/−) supplemented with exogenous AM or VEGF.

Flk-1 knockout mice = test: rescue test using Flk-1 knockout mice (lower extremity ischemia model); assay type: in vivo, mouse
Protocol: On the other hand, supplementation of AM to Flk-1, a receptor of VEGF knockout mice was conducted as a rescue test opposite to that mentioned above. The recovery of blood flow in Flk-1 knockout mice decreased in comparison with wild-type.

[5] = test system: angiogenesis enhancing factors and adhesion factor gene expression; test: gene array of sample from lower extremity ischemia model mice; assay type: in vivo, mouse
Source text: In this Example, the gene group of which expression level changes by the administration of AM were monitored by gene array using the sample form the lower extremity ischemia model mice

HUVEC = test: in vitro vascular permeability assay (FITC-dextran through HUVEC monolayer); assay type: cell-based, human
Protocol: In vitro vascular permeability assay is an assay in which the cells are cultured in the insert placed on the culture plate with semi-permeable membrane at the bottom to form monolayer, then the substance is added to the insert and the extent of permeability into the plate through the cell monolayer is measured. In particular, the extent of permeability is measured by addition of the substance for the vascular permeability test such as AM, followed by the addition of dextran labeled with FITC onto the cell monolayer, allowing it to permeate through the monolayer, and the fluorescence intensity in the plate well solution is measured. Thus, the suppression activity of AM on the vascular permeability may be investigated.
An insert made of semi-permeable membrane was placed on a cultivation plate, in which HUVEC was cultured so that the cells formed monolayer (EBM-2 medium, 5% CO2, 37° C., 24 hours). The extent of permeability was measured by addition of the substance for the vascular permeability test to the plate on which cell were cultured, followed by the addition of dextran labeled with FITC onto the cell monolayer, allowing it to permeate through the monolayer, and the fluorescence intensity in the plate well solution was measured.

[6] = test system: lower extremity edema model mice; test: lower extremity edema model mice by topical injection of carrageenan; assay type: in vivo, mouse; details: continuous administration of AM; carrageenan to pad of foot
Protocol: Transient edema may be prepared by topical injection of carrageenan, a hyperosmotic substance to pad of foot of mouse. Magnitude of the edema thus formed was evaluated by measuring the thickness of feet pad from time to time.

[7] = test system: cerebral edema model mice; test: cerebral edema model (cold injury of dura mater); assay type: in vivo, mouse; details: AM administration group vs control
Protocol: Mice were anesthetized with nembutal and then skull was opened. Injury was provided by contacting a cylinder cooled to −80° C. against dura mater. After 24 hours, mice were sacrificed, brain was removed and the increasing in the weight of the brain due to the cerebral edema was quantified. In the similar cerebral edema model, fluorescent-labeled dextran was injected into the tail vein and the leakage of the fluorescence dye out of the vessel in brain was quantified using fluorescent plate reader.

[8] = mice administered with AM 22-52
[9] = gene array, AM administration group vs control group

AM 22-52: a truncated form of AM consisting of from 22 to 52 amino acid sequence (AM antagonist) (TVQKLAHQIYQFTDKDKDNVAPRSKISPQGY; ends and bridges not checked; UniProt P35318 116-146, looked up, fragment) [reference compound]
angiogenesis [1, 8]: suppression | recovery of blood flow [1, 8]: suppression | expression of claudin 5 (claudin 5): decreased

Adrenomedullin [AM]
wound, amputation and shortening of lower limb ([1]; AM 50 ng/h, vs control group): Reduction of wound and decreasing in the number of amputation and shortening of lower limb | percentage of the mice in which the lower limb is normal or with slight wound ([1]; AM administration group): more than 80% | number of mice in which the lower limb was amputated or with severe wound ([1]; AM administration group vs control group): smaller than that in the control group | blood flow in ischemic lower limb ([1]; Day 7 and 12 after ischemia, AM 50 ng/h): recovery of blood flow was observed | number of new intramuscular blood vessel at the side of operation ([1]; administration of AM): increasing | recovery of the blood flow, ratio ischemic side (L) / non-ischemic side (R) (L/R) ([1]; administration of AM): significant recovery in the blood flow | recovery of the blood flow of lower extremity ([1]; laser Doppler perfusion imaging, AM 50 ng/h continuously by osmotic pump, C3H mice): Improvement in the recovery of the blood flow | phosphorylation of Akt by VEGF (Akt): enhanced | phosphorylation of eNOS by VEGF (eNOS): enhanced | expression level of VEGF (VEGF [2]): increased from the early stage after the ischemia operation (day 1) | expression level of VEGF (VEGF [3]): increased concentration- and time dependently | formation of new blood vessel [4]: recovered to the level comparable to the wild-type | recovery of blood flow / angiogenesis effect [4]: recovery of the angiogenesis effect | recovery of blood flow (Flk-1 knockout mice; exogenous AM to Flk-1 knockout mice): no recovery of blood flow | recovery of blood flow (Flk-1 knockout mice; exogenous AM to wild-type mice): enhance the recovery of blood flow | expression levels of eNOS, Osteopontin, VEGF, VCAM-1 and the like ([5]; administration of AM in comparison with control group): increased | COL18A1 expression, AM(+)/Control [5, 9]: 2.72 | Osteopontin expression, AM(+)/Control [5, 9]: 1.93 | PAI-1 expression, AM(+)/Control [5, 9]: 1.79 | PDGF-A expression, AM(+)/Control [5, 9]: 5.60 | PDGFRβ expression, AM(+)/Control [5, 9]: 1.58 | TGFβ expression, AM(+)/Control [5, 9]: 4.04 | Tie-2 expression, AM(+)/Control [5, 9]: 3.61 | VCAM-1 expression, AM(+)/Control [5, 9]: 3.65 | VEGF expression, AM(+)/Control [5, 9]: 1.50 | eNOS expression, AM(+)/Control [5, 9]: 1.71 | β-glycan expression, AM(+)/Control [5, 9]: 6.76 | vascular permeability (FITC-dextran through cell monolayer) (HUVEC; AM in addition to VEGF): suppressed the enhancement of vascular permeability by VEGF | vascular permeability (FITC-dextran through cell monolayer) (HUVEC; substance alone): suppression of vascular permeability | formation of edema at lower limb (thickness of feet pad) [6]: suppressed | vascular permeability in brain (leakage of fluorescent-labeled dextran) [7]: suppressed in comparison with control | weight of brain ([7]; 24 hours after injury): decreased | expression of claudin 5 (claudin 5): enhanced

vascular endothelial growth factor [VEGF]
formation of new blood vessel [4]: recovered to the level comparable to the wild-type | recovery of blood flow / angiogenesis effect [4]: recovery of the angiogenesis effect | vascular permeability (FITC-dextran through cell monolayer) (HUVEC; substance alone): enhanced vascular permeability
